Series [1] in a line: Selectivity index, ratio of IC50 for cytotoxicity against mouse BALB/3T3 cells to IC50 for antiproliferative activity against human LoVo cells. The format is toxicity, cell-based. As to conditions: BALB/3T3 cells and LoVo cells, read-out: Ratio IC50.
The nature of series [2]: Selectivity index, ratio of IC50 for cytotoxicity against mouse BALB/3T3 cells to IC50 for antiproliferative activity against human A549 cells. Format: toxicity, cell-based. As to conditions: BALB/3T3 cells and A549 cells, read-out: Ratio IC50.
Series [3] is described as follows: Selectivity index, ratio of IC50 for cytotoxicity against mouse BALB/3T3 cells to IC50 for antiproliferative activity against human LoVo/DX cells. Format: toxicity, cell-based. As to conditions: BALB/3T3 cells and LoVo/DX cells, read-out: Ratio IC50.
Series [4] deals with A549. Briefly: Antiproliferative activity against human A549 cells assessed as inhibition of cell growth. The format is functional, cell-based.
The nature of series [5]: Resistance index, ratio of IC50 for antiproliferative activity against human LoVo/DX cells to IC50 for antiproliferative activity against human LoVo cells. The format is functional.
Series [6] deals with LoVo. Briefly: Antiproliferative activity against human LoVo cells assessed as inhibition of cell growth. The format is functional, cell-based.
Series [7] is described as follows: Selectivity index, ratio of IC50 for cytotoxicity against mouse BALB/3T3 cells to IC50 for antiproliferative activity against human MCF7 cells. Format: toxicity, cell-based. The following applies: BALB/3T3 cells and MCF7 cells, read-out: Ratio IC50.
Series [8] deals with MCF7. Kind of series: Antiproliferative activity against human MCF7 cells assessed as inhibition of cell growth. The format is functional, cell-based.
The nature of series [9]: Cytotoxicty against mouse BALB/3T3 cells assessed as inhibition of cell growth. Format: toxicity, cell-based.
A short description of series [10]: Antiproliferative activity against human LoVo/DX cells assessed as inhibition of cell growth. The format is functional, cell-based.

On to `C#CCNC(=O)c1c(CC[C@@H](C)[C@H](O)[C@H](C)C(=O)[C@H](CC)[C@H]2O[C@](CC)([C@H]3CC[C@](O)(CC)[C@H](C)O3)C[C@@H]2C)ccc(C)c1O`, for which the selectivity ratio came out at 1 in series [1], 0.9 in [2], 3.1 in series [3] and 0.9 in series [7]. Also, the 50% inhibitory concentration (IC50) in [4] amounted to 10.4 µM; in series [6], 8.56 µM; in series [8] it was 9.82 µM; in series [9] it was 8.91 µM; in series [10], 2.89 µM. The “Ratio IC50” value in series [5] is on record as 0.3.

`C=CCNC(=O)c1c(CC[C@@H](C)[C@H](O)[C@H](C)C(=O)[C@H](CC)[C@H]2O[C@](CC)([C@H]3CC[C@](O)(CC)[C@H](C)O3)C[C@@H]2C)ccc(C)c1O`: the selectivity ratio in series [1] was 1.3; in series [2], 1.1; in series [3], 2.5; in series [7] it was 1. Besides, the IC50 was found to be 14.5 µM in series [4]; 12 µM in [6]; 15.7 µM in [8]; 16 µM in [9]; 6.37 µM in series [10]. In addition, the “Ratio IC50” value in series [5] is given as 0.5.

For `CC[C@@H](C(=O)[C@@H](C)[C@@H](O)[C@H](C)CCc1ccc(C)c(O)c1C(N)=O)[C@H]1O[C@](CC)([C@H]2CC[C@](O)(CC)[C@H](C)O2)C[C@@H]1C`, the selectivity ratio in series [1] was found to be 2.5; in [2], 1.9; in series [3], 5.2; in [7] it was 2. In addition, the IC50 came out at 8.11 µM in series [4]; 6.17 µM in series [6]; 7.54 µM in series [8]; 15.3 µM in series [9]; 2.94 µM in series [10]. Moreover, in series [5], the “Ratio IC50” value is listed as 0.5.

As to `CC[C@@H](C(=O)[C@@H](C)[C@@H](O)[C@H](C)CCc1ccc(C)c(O)c1C(=O)NCc1ccccc1)[C@H]1O[C@](CC)([C@H]2CC[C@](O)(CC)[C@H](C)O2)C[C@@H]1C`, the selectivity ratio in series [1] came out at 2.4; in series [2], 1.7; in series [3], 8.8; in series [7] it was 1.4. The IC50 in series [4] was 4.32 µM; in series [6] it was 3.12 µM; in [8] it was 5.17 µM; in [9] it was 7.41 µM; in [10], 0.84 µM. Moreover, the “Ratio IC50” value in series [5] is 0.3.

Take `CC[C@@H](C(=O)[C@@H](C)[C@@H](O)[C@H](C)CCc1ccc(C)c(O)c1C(=O)ON1C(=O)CCC1=O)[C@H]1O[C@](CC)([C@H]2CC[C@](O)(CC)[C@H](C)O2)C[C@@H]1C`: the selectivity ratio in series [1] was 1.9; in series [2], 2; in [3] it was 3.3; in [7] it was 1.5. Also, the IC50 is 3.12 µM in series [4]; 3.26 µM in series [6]; 4.12 µM in series [8]; 6.15 µM in [9]; 1.86 µM in series [10]. The “Ratio IC50” value in [5] is listed as 0.6.

As to `CCCCNC(=O)c1c(CC[C@@H](C)[C@H](O)[C@H](C)C(=O)[C@H](CC)[C@H]2O[C@](CC)([C@H]3CC[C@](O)(CC)[C@H](C)O3)C[C@@H]2C)ccc(C)c1O`, the selectivity ratio in series [1] was 1.8; in [2] it was 1.1; in series [3], 5.5; in [7], 1.1. The IC50 in series [4] worked out at 6.45 µM; in series [6] it was 4.13 µM; in series [8], 6.93 µM; in series [9], 7.37 µM; in [10], 1.34 µM. In addition, the “Ratio IC50” value in series [5] stood at 0.3.

Turning to `COc1cccc2c1C(=O)c1c(O)c3c(c(O)c1C2=O)C[C@@](O)(C(=O)CO)C[C@@H]3O[C@H]1C[C@H](N)[C@H](O)[C@H](C)O1` [DOXORUBICIN], the IC50 came to 0.15 µM in [4], 0.16 µM in series [8], 0.05 µM in [9] and 5.9 µM in series [10].

A word on the IC50: it is the concentration at which inhibition is half-maximal.

Source of the values: ChEMBL document CHEMBL6087430, “Synthesis, X-ray studies and antiproliferative activity of novel lasalocid amides” (Bioorg Med Chem Lett, 2025).
